The subject of assay [1] is tryptophan-deficient rats. Put plainly: Treadmill running test to exhaustion in tryptophan-deficient rats given tryptophan-added food (Evaluation Test 3). In kind it is in vivo, rat. The source says: Three-week-old female rats of Sprague-Dawley-type (each rat: 50 g) were raised for one month to a weight of 200 g [fed with normal food of AIN93G for one month (standard refined feed, made by Oriental Yeast, Co., Ltd., with the tryptophan being contained at 2.3 g/kg)], and from this time on, these were fed with the tryptophan-deficient food (adjusted feed in which only the tryptophan was removed from the above-mentioned AIN93G, with corn starch being used for compensating for the corresponding portion) for 16 days to form the tryptophan-deficient rats. Amino acids, contained in the normal food AIN93G, were respectively manufactured by AJINOMOTO CO., INC., and the respective contents (g) in 1 kg of feed were: alanine 5.6, arginine 6.8, aspartic acid 13.1, cystine 3.9, glutamic acid 39.6, glycine 3.4, histidine 5.6, isoleucine 10.1, leucine 17.5, lysine 14.9, methionine 5.6, phenyl alanine 9.5, proline 21.6, serine 9.7, threonine 7.7, tryptophan 2.3 (only contained in the tryptophan-containing food), tyrosine 10.4, and valine 12.6 (each of the amino acids having a purity of 100%). These rats were subjected to training for 30 minutes at a speed of 20 m/min (inclination: 7%) by treadmill running practice, three times a week, which started at the age of 3 weeks old, and lasted for 2 months. After the training had been completed, the rats were subjected to running loads on the treadmill at a speed of 20 m/min (inclination: 7%) up to exhaustion, and the running time was evaluated as the fatigue tests shown below. […] The evaluation was made by using inter-group comparisons (with paired t-test) of a Student's t-test.
To the tryptophan-deficient rats that had been subjected to the above-mentioned training were respectively given tryptophan-added food (AIN93G to which 2.3 g/kg of the tryptophan was added), and were then given physiological saline, a mixture of the BCH and the BCAA, the BCH and the BCAA, and comparison tests were carried out among the four groups. […]

The test system of assay [2] is striatal synaptosome of analbuminemia rats. The experiment in a line: Tryptophan and metabolites in striatal synaptosome immediately after exhaustion (HPLC, electrochemical detector). To be noted: for Concentration of 5-HIAA in striatal synaptosome / Concentration of 5-HT in striatal synaptosome / Concentration of 5-HTP in striatal synaptosome / Concentration of tryptophan in striatal synaptosome: NAR, immediately after exhaustion, mean ± SEM. It counts as in vivo, rat. The protocol: The head of each of the rats was sacrificed by decapitation immediately after the training so that the striatal synaptosome was separated, and tryptophan(Trp), 5-hydroxytryptophan (5-HTP), 5-hydroxytryptamin (5-HT) and 5-hydroxyindoleacetic acid (5-HIAA) were measured by high-performance liquid chromatography using an electrochemical detector. Moreover, the protein level in the P2 fraction was measured in accordance with the method of Lowry et al. (J. Protein measurements with the Folin phenol reagent, J. Biol. Chem. 193: 265-275; 1951).
(§1) These measured data were obtained by a analysis of variance (ANOVA) in one-way layout of Fisher's PLSD test by using multiple comparisons and repeated measurements, based upon the standard error. Next, the data were classified based upon running times, and analyzed by the Student's t-test based upon observation with paired t-test in the total effects of the BCAA and BCH treatment groups.

In the next assay the test system is analbuminemia rats. Put plainly: Treadmill running test to exhaustion in analbuminemia rats (fatigue test). It counts as in vivo, rat. To be noted: NAR; for Running time up to exhaustion: i.p., BCH 8 mg/kg and BCAA 250 mg/kg 1 h before running, albumin 1 g/kg 1.5 h before, mean ± SEM. The protocol: Three-week-old female analbuminemia rats (Japan SLC) that genetically lacked albumin in their blood plasma, which had been raised under light and dark cycles of 7:00 to 19:00 (light cycle) at room temperature 22° C., were subjected to the fatigue tests. Prior to the fatigue tests, the analbuminemia rats were subjected to training (20 m/min, 7% inclination) for 30 minutes, four times a week, during a predetermined period of time in 13:00 to 15:00, and this training lasted for four weeks so as to adapt them to running on the treadmill. After the training had been completed, all the analbuminemia rats (weight 210 to 255 g) were subjected to exhaustion tests on the treadmill under the same conditions, and time up to an exhaustion state was measured.
The rats, which were divided into four groups, were respectively treated with physiological saline (made by Otsuka Pharmaceutical Co., Ltd “0.9% physiological saline”), the BCH (made by Sigma K.K., NoA7902), the BCAA and albumin (made by Sigma K.K. A-6272 (Fraction V)). The dose of physiological saline was set to 5 ml/kg, that of the BCH was 8 mg/kg and that of the BCAA was 250 mg/kg, and these were given into the abdominal cavity one hour prior to the start of the running tests. Here, BCH, BCAA and albumin were respectively dissolved in physiological saline, and then administered. The dose of albumin was set to 1 g/kg, and given into the abdominal cavity one and half hours prior to the start of […]. […] These doses were determined so as to obtain sufficient effects, and in the case of actual doses to the human being, these can be changed appropriately depending on various factors.
as §1

Assay [3] relates to tryptophan-deficient rats. Put plainly: Treadmill running test to exhaustion in tryptophan-deficient rats (Evaluation Test 2). In kind it is in vivo, rat. To be noted: i.p. 1 h before running, BCH 150 mg/kg, BCAA 250 mg/kg, mean ± standard error. The source says:
Three-week-old female rats of Sprague-Dawley-type (each rat: 50 g) were raised for one month to a weight of 200 g [fed with normal food of AIN93G for one month (standard refined feed, made by Oriental Yeast, Co., Ltd., with the tryptophan being contained at 2.3 g/kg)], and from this time on, these were fed with the tryptophan-deficient food (adjusted feed in which only the tryptophan was removed from the above-mentioned AIN93G, with corn starch being used for compensating for the corresponding portion) for 16 days to form the tryptophan-deficient rats. Amino acids, contained in the normal food AIN93G, were respectively manufactured by AJINOMOTO CO., INC., and the respective contents (g) in 1 kg of feed were: alanine 5.6, arginine 6.8, aspartic acid 13.1, cystine 3.9, glutamic acid 39.6, glycine 3.4, histidine 5.6, isoleucine 10.1, leucine 17.5, lysine 14.9, methionine 5.6, phenyl alanine 9.5, proline 21.6, serine 9.7, threonine 7.7, tryptophan 2.3 (only contained in the tryptophan-containing food), tyrosine 10.4, and valine 12.6 (each of the amino acids having a purity of 100%). […] After the training had been completed, the rats were subjected to running loads on the treadmill at a speed of 20 m/min (inclination: 7%) up to exhaustion, and the running time was evaluated as the fatigue tests shown below. […]

The test system of the next assay is rats. To be noted: tryptophan 1 mM/30 min continuously injected into the brain; cited from earlier work.

For `NC1(C(=O)O)CC2CCC1C2` (stereo not drawn) [BCH, 2-aminobicyclo-[2,2,1]-heptane-2-carboxylic acid], in assay [1] (BCH only-administration, two cases), the “Running time of single rats that have not reached exhaustion” value was 524 minutes and not less than 524 minutes. In assay [1] (tryptophan-deficient rats given tryptophan-added food, doses as in evaluation test 2, i.p. 1 h before, mean ± standard error, values >542 set as 542), the “Running time up to exhaustion” value is 428 ± 45 min. For the same compound, in assay [1] (tryptophan-deficient rats given tryptophan-containing food, not statistically significant), the “Running-time difference versus physiological saline group (average-value comparison)” value is “approximately 40 minutes”. For the same compound, the “Change in uptake of 5-HTP into striatal synaptosome versus physiological saline group” value in assay [2] (BCAA and BCH treated groups totaled, group B (time to exhaustion 190 to 271 minutes), p<0.025) is recorded as −23%. In assay [2] (BCAA and BCH treated groups totaled, group B (time to exhaustion 190 to 271 minutes), p<0.05), the “Change in uptake of tryptophan into striatal synaptosome versus physiological saline group” value is −19%. Besides, in assay [2], the “Concentration of 5-HIAA in striatal synaptosome” value amounted to 3.58 ± 0.21 pmol/mg protein, the “Concentration of 5-HT in striatal synaptosome” value is 5.20 ± 0.79 pmol/mg protein, the “Concentration of 5-HTP in striatal synaptosome” value worked out at 1.25 ± 0.17 pmol/mg protein and the “Concentration of tryptophan in striatal synaptosome” value worked out at 53.43 ± 10.50 pmol/mg protein. In addition, the “Extension of running time relative to physiological saline” value in the assay on analbuminemia rats (from Table 1) is given as “approximately twice as long”. For the same compound, the “Running time up to exhaustion” value in the assay on analbuminemia rats was 188 ± 33 min. The “Running time up to exhaustion” value in assay [3] worked out at 308 ± 22 min.

For `N[C@@H](Cc1c[nH]c2ccccc12)C(=O)O` [tryptophan], in the assay with rats, the “Onset of fatigue in the central nervous system or muscles” value was “exhibit the fatigue in the central nervous system or muscles in very early stage”.

Consider “Albumin: albumin made by Sigma K.K. A-6272 (Fraction V)”, for which, in assay [2], the “Concentration of 5-HIAA in striatal synaptosome” value is listed as 3.30 ± 0.06 pmol/mg protein, the “Concentration of 5-HT in striatal synaptosome” value came out at 5.00 ± 0.47 pmol/mg protein, the “Concentration of 5-HTP in striatal synaptosome” value is 1.45 ± 0.18 pmol/mg protein and the “Concentration of tryptophan in striatal synaptosome” value was 52.41 ± 8.97 pmol/mg protein. For the same compound, the “Running time up to exhaustion” value with analbuminemia rats is 96 ± 22 min.

(Values after US20040033252A1, “Agents for recoverying from or preventing fatigue in the central nerve system and foods for recovering from or preventing fatigue” (priority 2000, published 2004).)
